{
  "source": "patent US20230390291A1",
  "about": "“TREATMENT OF SKIN DISORDERS WITH COMPOSITIONS COMPRISING AN EGFR INHIBITOR” (Sol-Gel Technologies Ltd., priority 2018, published 2023)",
  "key": {"[1]": {"settings": "cited from earlier work"}, "[2]": {"test_system": "psoriasis-induced human skin xenotransplants", "test": "Histological evaluation of psoriasis-induced xenotransplants", "assay_type": "in vivo, beige-SCID mice", "settings": "topical for 14 days, histology on Day 56", "description": "The objective of this study was to determine the efficacy of Erlotinib 5% as provided herein compared to the vehicle and Dexamethasone as shown at the Table below. The evaluation was based on histology analysis following application of the respective test formulations.\nThe efficacy study has been conducted on female mice. The total duration of the experiment was 8 weeks, upon receiving of the human skin. Normal skin from healthy volunteers were obtained for grafting. Healthy human abdominal skin pieces with a width of 0.4 mm and surface area of 1.5×1.5 cm were provided. The skin sample was preserved in isotonic saline solution and transplanted within 6-12 hours after skin donation. In addition, blood samples were collected from psoriatic patients having classic plaque psoriasis and not undergoing any treatment. 20 mL blood samples were taken from both males and females psoriatic patients (from psoriatic patients having classic plaque psoriasis and not undergoing any treatment), and peripheral blood mononuclear cells (PBMC) were separated immediately after blood withdrawal.\nMice: Beige-severe combined immunodeficient mice C.B-17/IcrHsdscid-bg (beige-SCID) mice (weight ˜25 g) were included in this study. Mice were monitored twice a week for vital signs such as weight, food intake, coat, eyes, anal genital areas, discharge/soiling, behavior and criteria related to skin transplantation. Normal healthy human donor skin were transplanted onto the beige-SCID mice as previously described (See Keren A. et al., Novel nanosome delivery system combined with siRNA targeting the antimicrobial gene DFB4: a new approach for psoriasis management?ExpDermatol. 2014; 23:464-465; Bracke S. et al.,Targeted silencing of DEFB4 in a bioengineered skin-humanized mouse model for psoriasis: development of siRNA SECosome-based novel therapies. ExpDermatol. 2014 ;23:199-201; Zaretsky M. et al., Directed evolution of a soluble human IL-17A receptor for the inhibition of psoriasis plaque formation in a mouse model. Chem Biol. 2013 21; 20:202-2; Gilhar A. et al., The beneficial effect of blocking Kv1.3 in the psoriasiform SCID mouse model. J Invest Dermatol. 2011;131:118 124; Keren A. et al., Innate lymphoid cells 3 induce psoriasis in xenotransplanted healthy human skin. J Allergy Clin Immunol. 2018;142:305-308.e6.).\nBritish Journal of Pharmacology 2010; 159:842-855).\nFour weeks following the engraftment, each mouse was injected (intradermally) with 1×10^7 IL-2 enriched allogeneic PBMC's from psoriatic patients (1×10^7 cells injected/mouse). Cells from different psoriasis patients were equally distributed between treatment groups. Each patient was represented in each treatment group.\nFourteen days following cells injections, the mice were divided into treatment groups (Table, see below) and treated according to the timeline indicated below (see Scheme 1). Each transplant was equally topically treated (50 μg) by using a sterile spatula.\nDexamethasone (D2915, Sigma): was freshly prepared for each administration by dilution in saline to final concentration (50 mg/ml). Dexamethasone serves as a positive control and was administered topically twice daily for 14 days following cells injections (at Day 42 following human skin transplantation) until the end of the study (Day 56).\nThe vehicle was administered topically (50 μg) once daily for 14 days as well.\nOn Day 56, the entire skin graft was excised and placed in 10% formaldehyde in saline overnight. Then, the specimens were placed in 70% ethanol and embedded and stained according to the standard Hematoxylin/Eosin protocol.\nSkin graft histological assessment was performed (according to the psoriatic criteria including epidermal thickness) using light microscopy, and two observers blindly performed the evaluations. Epidermal thickness was determined using an ocular micrometer at a minimum of 50 points along the epidermis selected to represent points of maximal and minimal thickness. […]"}, "Ki67": {"test_system": "Ki67", "test": "Epidermal proliferation of transplants, Ki67 immunohistochemical staining", "assay_type": "in vivo, beige-SCID mice", "settings": "xenotransplants after 14 days of treatment", "description": "From the study of Example 11, the human skin xenotransplants were harvested and fixed in 10% saline-buffered formalin overnight followed by 70% ethanol. Sections were stained and visualized with immunohistochemistry.\nAntigen retrieval was performed on the slides for 20 minutes in a microwave followed by cooling at room temperature for 25 minutes. Specimens were blocked for 30 minutes to prevent nonspecific binding and incubated with the primary antibody (Ab) overnight. The following primary antibodies were used: mouse anti human Ki67. Samples were then washed and incubated for 30 minutes with a biotinylated secondary antibody (Jackson ImmunoResearch, West Grove, Pa.). Finally, samples were washed and incubated with streptavidin-horseradish peroxidase (Jackson ImmunoResearch, West Grove, Pa.). […] Samples were examined using light microscopy.\nSlides were evaluated by experienced blinded observers. The fields of immunostained sections were counted in three areas and presented randomly to the observer(s)."}, "[3]": {"settings": "number of transplants out of 10"}},
  "note": "Counter-ions that a name gives are not always drawn. Like-named read-outs stand apart in the source and are kept apart here.",
  "data": [
    {"smiles": "C#Cc1cccc(Nc2ncnc3cc(OCCOC)c(OCCOC)cc23)c1", "note": "[Erlotinib hydrochloride]", "values": [
      {"measurement": "Solubility", "setting": "[1]; in acetone", "result": "practically insoluble"},
      {"measurement": "Solubility", "setting": "[1]; in acetonitrile", "result": "practically insoluble"},
      {"measurement": "Solubility", "setting": "[1]; in ethyl acetate", "result": "practically insoluble"},
      {"measurement": "Solubility", "setting": "[1]; in hexane", "result": "practically insoluble"},
      {"measurement": "Solubility", "setting": "[1]; in methanol", "result": "slightly soluble"},
      {"measurement": "Solubility", "setting": "[1]; in water", "result": "very slightly soluble"}
    ]},
    {"smiles": "C[C@@H]1C[C@H]2[C@@H]3CCC4=CC(=O)C=C[C@]4(C)[C@@]3(F)[C@@H](O)C[C@]2(C)[C@@]1(O)C(=O)CO", "note": "[Dexamethasone]", "values": [
      {"measurement": "Complete Recovery", "setting": "[2]; [3]", "result": "9/10"},
      {"measurement": "Partial Recovery", "setting": "[2]; [3]", "result": "1/10"},
      {"measurement": "Psoriatic Features", "setting": "[2]; [3]", "result": "0/10"},
      {"measurement": "Complete Recovery", "setting": "[2]; percent of transplants", "result": "(90%)"},
      {"measurement": "Partial Recovery", "setting": "[2]; percent of transplants", "result": "(10%)"},
      {"measurement": "Psoriatic Features", "setting": "[2]; percent of transplants", "result": "(0%)"}
    ]},
    {"smiles": "C#Cc1cccc(Nc2ncnc3cc(OCCOC)c(OCCOC)cc23)c1", "note": "[Erlotinib, N-(3-ethynylphenyl)-6,7-bis(2-methoxyethoxy)-4-quinazolinamine]", "values": [
      {"measurement": "proliferation index (Ki-67) compared to vehicle-treated xenotransplants", "setting": "Ki67", "result": "significant decrease"}
    ]}
  ]
}
